The record followed here is ChEMBL document CHEMBL4382262, “Structurally Simple, Readily Available Peptidomimetic 1-Benzyl-5-methyl-4-( n-octylamino)pyrimidin-2(1 H)-one Exhibited Efficient Cardioprotection in a Myocardial Ischemia (MI) Mouse Model” (J Med Chem, 2018).

Calls of active or inactive are those of the source. The calls are words filed in the database; no cut-off is given here.

Assay [1] has as its system Mus musculus. Description: Cardioprotective activity in C57BL mouse model of left anterior descending coronary artery ligation-induced myocardial ischemia assessed as reduction in leukocyte infiltration at 0.3 mg/kg, iv treated 1 hr after left anterior descending coronary artery ligation and measured after 7 days post LAD by hematoxylin/eosin staining based light microscopy. The class given is functional, organism-based.

Assay [2] concerns the target T1, Toll-like receptor 4 (Rattus norvegicus) (UniProt Q9QX05).
T1 sequence (whole entry): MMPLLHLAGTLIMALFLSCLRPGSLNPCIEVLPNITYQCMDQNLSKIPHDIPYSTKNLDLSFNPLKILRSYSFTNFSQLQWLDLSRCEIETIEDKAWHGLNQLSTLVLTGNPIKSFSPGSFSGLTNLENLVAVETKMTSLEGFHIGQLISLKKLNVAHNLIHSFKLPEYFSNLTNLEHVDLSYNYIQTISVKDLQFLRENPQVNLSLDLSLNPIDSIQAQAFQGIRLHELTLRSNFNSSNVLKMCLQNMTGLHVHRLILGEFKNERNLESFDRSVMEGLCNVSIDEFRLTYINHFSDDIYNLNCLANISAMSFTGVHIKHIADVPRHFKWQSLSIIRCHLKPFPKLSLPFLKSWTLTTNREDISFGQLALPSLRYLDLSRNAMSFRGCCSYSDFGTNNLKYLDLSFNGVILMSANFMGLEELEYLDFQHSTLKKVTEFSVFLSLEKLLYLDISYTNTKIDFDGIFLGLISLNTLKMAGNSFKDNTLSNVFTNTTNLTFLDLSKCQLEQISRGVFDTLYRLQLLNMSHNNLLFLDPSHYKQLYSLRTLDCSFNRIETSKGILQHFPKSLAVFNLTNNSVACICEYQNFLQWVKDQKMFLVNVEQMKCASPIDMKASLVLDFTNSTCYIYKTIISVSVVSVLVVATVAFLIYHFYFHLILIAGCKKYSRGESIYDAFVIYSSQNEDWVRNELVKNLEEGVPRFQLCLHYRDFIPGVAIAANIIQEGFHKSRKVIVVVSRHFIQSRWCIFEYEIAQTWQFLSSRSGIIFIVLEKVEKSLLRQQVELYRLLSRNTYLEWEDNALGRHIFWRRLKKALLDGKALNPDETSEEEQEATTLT
Nature of the assay: Inhibition of TLR4 in Sprague-Dawley rat cardiomyocytes assessed as reduction in hypoxia-induced creatine kinase levels at 5 uM preincubated for 1 hr followed by hypoxia for 3 hrs by NADP reduction based colorimetric analysis. It is filed as cell-based.

In assay [3] the target is T1, Toll-like receptor 4 (Rattus norvegicus). Nature of the assay: Binding affinity to TLR4 in Sprague-Dawley rat cardiomyocytes at 20 uM after 2 hrs by MS/MS-based pull down assay. It is filed as cell-based.
The target is the same in assay [4]. Description: Inhibition of TLR4 in Sprague-Dawley rat cardiomyocytes assessed as reduction in hypoxia-induced IL-1beta mRNA expression at 20 uM preincubated for 1 hr followed by hypoxia for 3 hrs by RT-qPCR analysis. The class given is cell-based. In general terms: In qPCR the cycle at which signal appears reflects the starting amount.
The test system of assay [5] is Mus musculus. Nature of the assay: Cardioprotective activity in C57BL mouse model of left anterior descending coronary artery ligation-induced myocardial ischemia assessed as survival rate at 0.3 mg/kg, iv treated 1 hr after left anterior descending coronary artery ligation and measured after 7 days post LAD. It is filed as functional.
In assay [6] the target is T1, Toll-like receptor 4 (Rattus norvegicus). Nature of the assay: Inhibition of TLR4 in Sprague-Dawley rat cardiomyocytes assessed as reduction in hypoxia-induced LDH levels by measuring NADH levels at 20 uM preincubated for 1 hr followed by induction of hypoxia measured after 3 hrs by colorimetric analysis. It is filed as cell-based.
The subject of assay [7] is Mus musculus. Nature of the assay: Cardioprotective activity in C57BL mouse model of left anterior descending coronary artery ligation-induced myocardial ischemia assessed as reduction in heart infarct size at 0.3 mg/kg, iv treated 1 hr after left anterior descending coronary artery ligation and measured after 7 days post LAD. It is filed as functional, organism-based.

For assay [8], the target named is T1, Toll-like receptor 4 (Rattus norvegicus). Nature of the assay: Inhibition of TLR4 in Sprague-Dawley rat cardiomyocytes assessed as reduction in hypoxia-induced TRAM protein expression at 20 uM preincubated for 1 hr followed by hypoxia for 3 hrs by Western blot analysis relative to untreated control. The class given is cell-based. (A western blot detects proteins with antibodies after separation by electrophoresis.)

The test system of assay [9] is Mus musculus. Description: Cardioprotective activity in C57BL mouse model of left anterior descending coronary artery ligation-induced myocardial ischemia assessed as reduction in heart infarct size at 0.3 mg/kg, iv treated 1 hr after left anterior descending coronary artery ligation and measured after 24 hrs post LAD. It is filed as functional, organism-based.
The nature of assay [10]: Reduction in hypoxia-induced TLR4 protein expression in Sprague-Dawley rat cardiomyocytes at 20 uM preincubated for 1 hr followed by hypoxia for 3 hrs by Western blot analysis relative to untreated control. It is filed as functional, Cardiac muscle cell.
A short description of assay [11]: Reduction in hypoxia-induced TLR4 mRNA expression in Sprague-Dawley rat cardiomyocytes at 20 uM preincubated for 1 hr followed by hypoxia for 3 hrs by RT-qPCR analysis relative to untreated control. It is filed as functional, Cardiac muscle cell.
For assay [12], the system named is Mus musculus. Nature of the assay: Cardioprotective activity in C57BL mouse model of left anterior descending coronary artery ligation-induced myocardial ischemia assessed as reduction in heart infarct size at 0.3 mg/kg, iv pretreated for 1 hr followed by left anterior descending coronary artery ligation. It is filed as functional, organism-based.

In the case of `CCCCCCCCNc1nc(=O)n(Cc2ccccc2)cc1C`, the result (in the assay with Mus musculus [1]; in assay [3]; in the assay with Mus musculus [7]; with Mus musculus [12]) was Active. The inhibition result in assay [2] was “inactive”. Besides, the fold change (FC) in [4] is 15; in assay [8], 2.8; in assay [10], 2.7; in assay [11], 3.1. Moreover, in the assay on Mus musculus [5], the survival at 0.3 mg/kg came out at 100%. For the same compound, the inhibition result in assay [6] is “Active”. Further, in the assay with Mus musculus [9], the result was inactive.
